Assays:
HeLa [1] = test: Antiproliferative activity against human HeLa cells incubated for 48 hrs by MTT assay; format: functional, cell-based
A549 [2] = test: Antiproliferative activity against human A549 cells incubated for 48 hrs by MTT assay; format: functional, cell-based; settings: A549, 48 h
HepG2 = test: Antiproliferative activity against human HepG2 cells incubated for 48 hrs by MTT assay; format: functional, cell-based; settings: HepG2, 48 h
MCF7 = test: Antiproliferative activity against human MCF7 cells incubated for 48 hrs by MTT assay; format: functional, cell-based; settings: MCF7, 48 h
K562 = test: Cytotoxicity against human K562 cells incubated for 72 hrs by CCK8 assay; format: functional, cell-based; settings: K562, 72 h
K562/Adr = test: Cytotoxicity against human K562/ADR cells incubated for 72 hrs by CCK8 assay; format: functional, cell-based
[3] = Resistance index, ratio of IC50 for human K562/ADR cells to IC50 for human K562 cells; format: functional
A549 [4] = test: Antiproliferative activity against human A549 cells incubated for 24 hrs by MTT assay; format: functional, cell-based; settings: A549, 24 h
HeLa [5] = test: Antiproliferative activity against human HeLa cells incubated for 24 hrs by MTT assay; format: functional, cell-based
Calu-1 = test: Antiproliferative activity against human Calu-1 cells incubated for 24 hrs by MTT assay; format: functional, cell-based; settings: Calu-1, 24 h
SW480 = test: Antiproliferative activity against human SW480 cells incubated for 48 hrs by MTT assay; format: functional, cell-based; settings: SW480, 48 h
SMMC-7721 = test: Antiproliferative activity against human SMMC-7721 cells incubated for 48 hrs by MTT assay; format: functional, cell-based; settings: SMMC-7721, 48 h
HL-60 = test: Antiproliferative activity against human HL-60 cells incubated for 48 hrs by MTT assay; format: functional, cell-based; settings: HL-60, 48 h

SMILES: COc1cc([C@@H]2c3cc4c(cc3C[C@H]3COC(=O)[C@@H]32)OCO4)cc(OC)c1OC(=O)NCC(=O)N1CCN(c2ccc([N+](=O)[O-])cc2)CC1
- IC50 (HeLa [1]): 183 nM
- IC50 (A549 [2]): 183 nM
- IC50 (HepG2): 210 nM

SMILES: CCC[C@H]1O[C@H](O[C@@H]2c3cc4c(cc3[C@@H](c3cc(OC)c(O)c(OC)c3)[C@H]3C(=O)OC[C@@H]32)OCO4)CC[C@H]1O
- IC50 (HeLa [1]): 41.6 nM
- IC50 (A549 [2]): 41.6 nM
- IC50 (MCF7): 41.6 nM
- IC50 (HepG2): 41.6 nM

SMILES: COc1cc([C@@H]2c3cc4c(cc3[C@H](OC(=O)/C=C/c3ccc(F)cc3)[C@H]3COC(=O)[C@H]23)OCO4)cc(OC)c1OC
- IC50 (K562): 11 nM
- IC50 (K562/Adr): 11 nM
- Ratio IC50 [3]: 1.1

SMILES: COc1ccc(C2SCCC(CCCCC(=O)O[C@H]3c4cc5c(cc4[C@@H](c4cc(OC)c(OC)c(OC)c4)[C@H]4C(=O)OC[C@@H]43)OCO5)S2)cc1O (stereo not given in full)
- IC50 (A549 [4]): 2680 nM
- IC50 (HeLa [5]): 2680 nM
- IC50 (Calu-1): 2680 nM

SMILES: COc1ccc(C2SCCC(CCCCC(=O)O[C@H]3c4cc5c(cc4[C@@H](c4cc(OC)c(OC)c(OC)c4)[C@H]4C(=O)OC[C@@H]43)OCO5)S2)cc1OC (stereo not given in full)
- IC50 (A549 [4]): 2680 nM
- IC50 (HeLa [5]): 2680 nM
- IC50 (Calu-1): 2680 nM

SMILES: CCC[C@@H]1O[C@H](O[C@H]2c3cc4c(cc3[C@@H](c3cc(OC)c(OC)c(OC)c3)[C@H]3C(=O)OC[C@@H]32)OCO4)CC[C@H]1O
- IC50 (HeLa [1]): 41.6 nM
- IC50 (A549 [2]): 41.6 nM
- IC50 (MCF7): 41.6 nM
- IC50 (HepG2): 41.6 nM

SMILES: COc1cc([C@@H]2c3cc4c(cc3[C@H](OC(=O)/C=C/c3ccc(C)cc3)[C@H]3COC(=O)[C@H]23)OCO4)cc(OC)c1OC
- IC50 (K562): 11 nM
- IC50 (K562/Adr): 11 nM
- Ratio IC50 [3]: 1.1

SMILES: COc1cc([C@@H]2c3cc4c(cc3[C@H](OC(=O)CCCCC3CCSC(c5ccc(Cl)cc5)S3)[C@H]3COC(=O)[C@H]23)OCO4)cc(OC)c1OC (stereo not given in full)
- IC50 (A549 [4]): 2680 nM
- IC50 (HeLa [5]): 2680 nM
- IC50 (Calu-1): 2680 nM

SMILES: COc1cc([C@@H]2c3cc4c(cc3[C@@H](n3cc(COC(=O)CCCCCNC(=O)CCCC[C@@H]5SC[C@@H]6NC(=O)N[C@@H]65)nn3)[C@H]3COC(=O)[C@H]23)OCO4)cc(OC)c1O
- IC50 (A549 [2]): > 130 nM
- IC50 (MCF7): > 130 nM
- IC50 (SW480): > 130 nM
- IC50 (SMMC-7721): > 130 nM
- IC50 (HL-60): > 130 nM

SMILES: CC[C@H]1O[C@@H](O[C@@H]2c3cc4c(cc3[C@@H](c3cc(OC)c(O)c(OC)c3)[C@H]3C(=O)OC[C@@H]32)OCO4)CC[C@H]1O
- IC50 (HeLa [1]): 41.6 nM
- IC50 (A549 [2]): 41.6 nM
- IC50 (MCF7): 41.6 nM
- IC50 (HepG2): 41.6 nM

SMILES: COc1cc([C@@H]2c3cc4c(cc3[C@@H](O[C@H]3CC[C@@H](O)[C@@H](C(C)C)O3)[C@H]3COC(=O)[C@H]23)OCO4)cc(OC)c1O
- IC50 (HeLa [1]): 41.6 nM
- IC50 (A549 [2]): 41.6 nM
- IC50 (MCF7): 41.6 nM
- IC50 (HepG2): 41.6 nM

SMILES: COc1cc([C@@H]2c3cc4c(cc3[C@H](OC(=O)CCCCC3CCSC(c5ccccc5)S3)[C@H]3COC(=O)[C@H]23)OCO4)cc(OC)c1OC (stereo not given in full)
- IC50 (A549 [4]): 2680 nM
- IC50 (HeLa [5]): 2680 nM
- IC50 (Calu-1): 2680 nM

SMILES: CCCC(=O)O[C@@H]1[C@@H](OC(=O)CCC)[C@@H](O[C@@H]2c3cc4c(cc3[C@@H](c3cc(OC)c(O)c(OC)c3)[C@H]3C(=O)OC[C@@H]32)OCO4)OC[C@H]1OC(=O)CCC
- IC50 (A549 [2]): > 2900 nM
- IC50 (MCF7): > 2900 nM
- IC50 (SW480): > 2900 nM
- IC50 (SMMC-7721): > 2900 nM
- IC50 (HL-60): > 2900 nM

SMILES: COc1cc([C@@H]2c3cc4c(cc3[C@@H](O[C@@H]3CC[C@@H](O)[C@@H](C)O3)[C@H]3COC(=O)[C@H]23)OCO4)cc(OC)c1O
- IC50 (HeLa [1]): 41.6 nM
- IC50 (A549 [2]): 41.6 nM
- IC50 (MCF7): 41.6 nM
- IC50 (HepG2): 41.6 nM

SMILES: COc1cc([C@@H]2c3cc4c(cc3[C@H](O[C@H]3CC[C@@H](O)[C@H](C(C)C)O3)[C@H]3COC(=O)[C@H]23)OCO4)cc(OC)c1OC
- IC50 (HeLa [1]): 41.6 nM
- IC50 (A549 [2]): 41.6 nM
- IC50 (MCF7): 41.6 nM
- IC50 (HepG2): 41.6 nM

SMILES: COc1cc([C@@H]2c3cc4c(cc3[C@H](OC(=O)CCCCC3CCSC(c5ccc(Br)cc5)S3)[C@H]3COC(=O)[C@H]23)OCO4)cc(OC)c1OC (stereo not given in full)
- IC50 (A549 [4]): 2680 nM
- IC50 (HeLa [5]): 2680 nM
- IC50 (Calu-1): 2680 nM

SMILES: COc1cc([C@@H]2c3cc4c(cc3[C@H](O[C@H]3CC[C@@H](O)[C@H](C)O3)[C@H]3COC(=O)[C@H]23)OCO4)cc(OC)c1OC
- IC50 (HeLa [1]): 41.6 nM
- IC50 (A549 [2]): 41.6 nM
- IC50 (MCF7): 41.6 nM
- IC50 (HepG2): 41.6 nM

SMILES: COc1cc([C@@H]2c3cc4c(cc3[C@H](OC(=O)CCCCC3CCSC(c5ccc(Cl)cc5Cl)S3)[C@H]3COC(=O)[C@H]23)OCO4)cc(OC)c1OC (stereo not given in full)
- IC50 (A549 [4]): 2680 nM
- IC50 (HeLa [5]): 2680 nM
- IC50 (Calu-1): 2680 nM

From ChEMBL document CHEMBL4818987, “Recent advances of podophyllotoxin/epipodophyllotoxin hybrids in anticancer activity, mode of action, and structure-activity relationship: An update (2010-2020)” (Eur J Med Chem, 2020)
